Measured values as given in patent US12084419B2, “Cell metabolism modulating compounds and uses thereof” (CRESCENTA BIOSCIENCES, priority 2020, dated 2024).

Target: T1, His6 tagged human recombinant FABP4 (Homo sapiens, UniProt P15090)
T1 construct: purchased Cayman Chemicals 10009549
Assay: FABP4 TR-FRET assay: displacement of BODIPY FL C12 fatty acid
Settings: triplicates, inhibition of BODIPY FL C12 binding; for inhibition at 1 µM: 1 μM compound; for inhibition at 10 µM: 10 μM compound
Text: Activity of compounds with FABP4 was profiled using a Terbium (Tb) based time resolved fluorescence energy transfer (TR-FRET) assay. The assay measures the compound mediated displacement of the fluorescent fatty acid BODIPY FL C12 (Thermo Fisher; catalog number D3822) from His6 tagged human recombinant FABP4 (His6-FABP4; Cayman Chemicals, catalog number 10009549) via recording the energy transfer from TB donor molecule on anti-His6-tag antibody to acceptor BODIPY moiety. Briefly, compounds were prepared at a concentration of 0.362 mM and 0.0362 mM, and BODIPY FL C12 was prepared at 4.2 μM, in DMSO. 1.2 μL of each compound or DMSO (vehicle control) and 1.2 μL of BODIPY FL C12 were added into the wells of a 384-well black polypropylene plate. His6-FABP4 and Tb anti-His6 antibody were prepared in the assay buffer (25 mM Tris/HCl, pH 7.4, 0.4 mg/ml y-globulins, 0.010% NP-40, 1 mM DTT) at a concentration of 83 nM and 49.6 nM, respectively. The protein and antibody solutions were then mixed at a ratio of 34:7 (v/v) and incubated on ice for 30 minutes. The assay was initiated by adding 41 μL of the resulting protein/antibody solution into the wells containing the compounds and BODIPY FL C12. The plate was centrifuged and incubated at room temperature for 10 min. The TR-FRET signals were recorded using an EnVision Multilabel plate reader (PerkinElmer; TB excitation 320 nm, BODIPY FL C12 emission 520 nm; TB emission 615 nm). Relative fluorescence ratio (520 nm*10,000/615 nm) were used to calculate the compound mediated inhibition of BODIPY C12 FL fatty acid binding to FABP4. […] Glucose consumption and FABP4 inhibition is shown below in Table 3 below.

T1 sequence (P15090 whole entry): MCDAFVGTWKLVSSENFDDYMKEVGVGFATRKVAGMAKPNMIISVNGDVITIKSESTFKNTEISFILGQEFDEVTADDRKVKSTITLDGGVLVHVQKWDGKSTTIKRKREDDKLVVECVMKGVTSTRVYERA

Row | SMILES | inhibition at 1 µM [%] | inhibition at 10 µM [%]
1 | N#Cc1cccc(Cn2c3c(c4cccc(C(=O)O)c42)C(CCc2ccccc2)CCC3)c1 (centres unmarked) [9-[(3-cyanophenyl)methyl]-4-(2-phenylethyl)-2,3,4,9-tetrahydro-1H-carbazole-8-carboxylic acid] | 31 | 53.4
2 | CCCCC1CCCc2c(n(Cc3cccc(C#N)c3)c3c(C(=O)O)cccc23)C1 (centres unmarked) [7-butyl-5-[(3-cyanophenyl)methyl]-5H,6H,7H,8H,9H,10H-cyclohepta[b]indole-4-carboxylic acid] | 73.5 | 112
3 | CCCCCCC1CCc2c(n(Cc3ccccc3C#N)c3c(C(=O)O)cccc23)C1 (centres unmarked) [9-[(2-cyanophenyl)methyl]-2-hexyl-2,3,4,9-tetrahydro-1H-carbazole-8-carboxylic acid] | 87.3 | 92.7
4 | CCCOC1CCCc2c1n(Cc1cccc(C(N)=O)c1)c1c(C(=O)O)cccc21 (centres unmarked) [9-[(3-carbamoylphenyl)methyl]-1-propoxy-2,3,4,9-tetrahydro-1H-carbazole-8-carboxylic acid] | 57.6 | 92
5 | CCCCCCC1CCCc2c(n(Cc3cccc(C(F)(F)F)n3)c3c(C(=O)O)cccc23)C1 (centres unmarked) [7-hexyl-5-{[6-(trifluoromethyl)pyridin-2-yl]methyl}-5H,6H,7H,8H,9H,10H-cyclohepta[b]indole-4-carboxylic acid] |  | 79.8
6 | CCCCCCC1CCCc2c(n(Cc3ccccc3C#N)c3c(C(=O)O)cccc23)C1 (centres unmarked) [5-[(2-cyanophenyl)methyl]-7-hexyl-5H,6H,7H,8H,9H,10H-cyclohepta[b]indole-4-carboxylic acid] |  | 88.6
7 | CCCCC1CCCc2c(n(Cc3ccc(C(N)=O)cc3)c3c(C(=O)O)cccc23)C1 (centres unmarked) [7-butyl-5-[(4-carbamoylphenyl)methyl]-5H,6H,7H,8H,9H,10H-cyclohepta[b]indole-4-carboxylic acid] | 92.6 | 95.5
8 | CCCC1CCc2c(c3cccc(C(=O)O)c3n2Cc2cccc(C#N)c2)C1 (centres unmarked) [9-[(3-cyanophenyl)methyl]-3-propyl-2,3,4,9-tetrahydro-1H-carbazole-8-carboxylic acid] | 46.8 | 85.4
9 | CCCCCCC1CCCc2c(n(Cc3ccccc3C)c3c(C(=O)O)cccc23)C1 (centres unmarked) [7-hexyl-5-[(2-methylphenyl)methyl]-5H,6H,7H,8H,9H,10H-cyclohepta[b]indole-4-carboxylic acid] | 92.7 | 84.2
10 | CCCCC1CCCCc2c1n(Cc1cccc(C#N)c1)c1c(C(=O)O)cccc21 (centres unmarked) [6-butyl-5-[(3-cyanophenyl)methyl]-5H,6H,7H,8H,9H,10H-cyclohepta[b]indole-4-carboxylic acid] | 71.3 | 85.7
11 | CCCC1CCCCc2c1c1cccc(C(=O)O)c1n2Cc1cccc(C(N)=O)c1 (centres unmarked) [5-[(3-carbamoylphenyl)methyl]-10-propyl-5H,6H,7H,8H,9H,10H-cyclohepta[b]indole-4-carboxylic acid] | 38.8 | 91.6
12 | CCCCCCC1CCCc2c(n(Cc3cccnc3)c3c(C(=O)O)cccc23)C1 (centres unmarked) [7-hexyl-5-[(pyridin-3-yl)methyl]-5H,6H,7H,8H,9H,10H-cyclohepta[b]indole-4-carboxylic acid] | 105 | 97.3
13 | CCC1CCCc2c1c1cccc(C(=O)O)c1n2Cc1cccc(C(=O)O)c1 (centres unmarked) [9-[(3-carboxyphenyl)methyl]-4-ethyl-2,3,4,9-tetrahydro-1H-carbazole-8-carboxylic acid] | 52.1 | 85.4
14 | CCCCCCC1CCCc2c(n(Cc3cccc(C(N)=O)c3)c3c(C(=O)O)cccc23)C1 (centres unmarked) [5-[(3-carbamoylphenyl)methyl]-7-hexyl-5H,6H,7H,8H,9H,10H-cyclohepta[b]indole-4-carboxylic acid] | 102 | 94.2
15 | CCCCCCC1CCCc2c(n(Cc3cccc(C)c3)c3c(C(=O)O)cccc23)C1 (centres unmarked) [7-hexyl-5-[(3-methylphenyl)methyl]-5H,6H,7H,8H,9H,10H-cyclohepta[b]indole-4-carboxylic acid] | 98.6 | 94.7
16 | CCCC1CCc2c1n(Cc1cccc(C#N)c1)c1c(C(=O)O)cccc21 (centres unmarked) [4-[(3-cyanophenyl)methyl]-3-propyl-1H,2H,3H,4H-cyclopenta[b]indole-5-carboxylic acid] | 67.8 | 97.6
17 | CCCCCC1CCc2c(n(Cc3cccc(C(N)=O)c3)c3c(C(=O)O)cccc23)C1 (centres unmarked) [9-[(3-carbamoylphenyl)methyl]-2-pentyl-2,3,4,9-tetrahydro-1H-carbazole-8-carboxylic acid] | 75 | 67
18 | CCCCC1CCCc2c1c1cccc(C(=O)O)c1n2Cc1cccc(C#N)c1 (centres unmarked) [4-butyl-9-[(3-cyanophenyl)methyl]-2,3,4,9-tetrahydro-1H-carbazole-8-carboxylic acid] | 25.3 | 65.5
19 | CCC1CCc2c1n(Cc1cccc(C#N)c1)c1c(C(=O)O)cccc21 (centres unmarked) [4-[(3-cyanophenyl)methyl]-3-ethyl-1H,2H,3H,4H-cyclopenta[b]indole-5-carboxylic acid] | 54.8 | 86.2
20 | CCCCCCC1CCCc2c(n(Cc3cccc(C#N)c3)c3c(C(=O)O)cc(F)cc23)C1 (centres unmarked) [5-[(3-cyanophenyl)methyl]-2-fluoro-7-hexyl-5H,6H,7H,8H,9H,10H-cyclohepta[b]indole-4-carboxylic acid] | 87.3 | 93.9
21 | CCCC1CCCc2c1c1cccc(C(=O)O)c1n2Cc1cccc(C(N)=O)c1 (centres unmarked) [9-[(3-carbamoylphenyl)methyl]-4-propyl-2,3,4,9-tetrahydro-1H-carbazole-8-carboxylic acid] | 53.9 | 90
22 | CCCCC1CCCc2c(n(Cc3cccc(F)c3)c3c(C(=O)O)cccc23)C1 (centres unmarked) [7-butyl-5-[(3-fluorophenyl)methyl]-5H,6H,7H,8H,9H,10H-cyclohepta[b]indole-4-carboxylic acid] | 97 | 90.6
23 | N#Cc1cccc(Cn2c3c(c4cccc(C(=O)O)c42)CCC(CCc2ccccc2)C3)c1 (centres unmarked) [9-[(3-cyanophenyl)methyl]-2-(2-phenylethyl)-2,3,4,9-tetrahydro-1H-carbazole-8-carboxylic acid] |  | 92.3
24 | CCCCCCC1CCCc2c(n(Cc3ccnc(F)c3)c3c(C(=O)O)cccc23)C1 (centres unmarked) [5-[(2-fluoropyridin-4-yl)methyl]-7-hexyl-5H,6H,7H,8H,9H,10H-cyclohepta[b]indole-4-carboxylic acid] | 92.8 | 90.4
25 | CCCCCCCCC1CCCc2c(n(Cc3cccc(C(N)=O)c3)c3c(C(=O)O)cccc23)C1 (centres unmarked) [5-[(3-carbamoylphenyl)methyl]-7-octyl-5H,6H,7H,8H,9H,10H-cyclohepta[b]indole-4-carboxylic acid] | 98.1 | 93.6
26 | CCCC1CCCc2c(n(Cc3cccc(C(N)=O)c3)c3c(C(=O)O)cccc23)C1 (centres unmarked) [5-[(3-carbamoylphenyl)methyl]-7-propyl-5H,6H,7H,8H,9H,10H-cyclohepta[b]indole-4-carboxylic acid] | 85.1 | 91.4
27 | CCCCC1CCCc2c(n(Cc3cccc(C(N)=O)c3)c3c(C(=O)NCCO)cccc23)C1 (centres unmarked) [7-butyl-5-[(3-carbamoylphenyl)methyl]-N-(2-hydroxyethyl)-5H,6H,7H,8H,9H,10H-cyclohepta[b]indole-4-carboxamide] | 10.2 | 
